Results from patent publication US12521371B2, “Modulators of alpha-synuclein” (KAINOS MEDICINE INC., priority 2017, dated 2026).

Tests used:
[1] = system: deoxy-glucose induced hypoxia-mediated apoptosis; settings: at 10 uM; U.S. Pat. No. 7,939,550; cited from earlier work
FAF1-Caspase 8 complex = biological target: T1, FAF1-Caspase 8 complex (Homo sapiens, UniProt Q9UNN5); assay: Immunoprecipitation assay of FAF1-Caspase 8 complex formation; format: biochemical
T1 construct: host or cells: cell extracts
T1 sequence (Q9UNN5 1-650): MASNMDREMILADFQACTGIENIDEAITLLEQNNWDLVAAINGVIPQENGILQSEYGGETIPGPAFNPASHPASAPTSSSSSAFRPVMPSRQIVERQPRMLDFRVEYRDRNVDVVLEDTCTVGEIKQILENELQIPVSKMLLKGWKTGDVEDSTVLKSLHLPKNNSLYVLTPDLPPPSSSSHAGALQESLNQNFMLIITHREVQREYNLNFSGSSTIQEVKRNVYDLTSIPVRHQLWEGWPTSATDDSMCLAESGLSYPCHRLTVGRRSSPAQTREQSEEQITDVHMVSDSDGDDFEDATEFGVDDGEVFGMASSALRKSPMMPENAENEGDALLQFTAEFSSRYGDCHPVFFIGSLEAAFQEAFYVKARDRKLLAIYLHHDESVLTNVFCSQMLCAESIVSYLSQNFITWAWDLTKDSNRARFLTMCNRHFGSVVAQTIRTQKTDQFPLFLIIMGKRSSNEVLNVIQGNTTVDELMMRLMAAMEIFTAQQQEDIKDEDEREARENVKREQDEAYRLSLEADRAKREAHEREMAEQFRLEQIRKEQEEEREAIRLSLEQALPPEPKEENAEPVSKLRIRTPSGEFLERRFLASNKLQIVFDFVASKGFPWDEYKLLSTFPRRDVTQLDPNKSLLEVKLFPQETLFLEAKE
Text: (§1) FAF1 activates apoptotic stress by various stimuli through activation of caspase cascade and necrosis as described (Yu C et al. 2016). The direct targets of FAF1 are caspase 8 and JNK in these two pathways, respectively. And the step of this activation is forming these complexes followed by activation of the downstream targets.
(§2) The inhibition of the complex formation of FAF1-Caspase 8 and FAF1-JNK by KM-819 is confirmed by the usual immunoprecipitation assays using a caspase8 DED antibody and a JNK antibody, and bound and precipitated FAF1 are measured by Western blot using anti-FAF1 antibody. Clearly, KM-819 inhibits the complex formation effectively, about 80% inhibition at 0.1 uM (FIG. 8).

JNK = JNK activation measured as JNK autophosphorylation, Western blot; format: cell-based; settings: autophosphorylation of JNK
Protocol: (§3) The inhibition of activation of Caspase 8 and JNK by KM-819 is confirmed by assaying the cleavage of the Caspase 8 substrate, Caspase 3, and autophosphorylation of JNK, respectively (FIG. 9). The cells are treated with different concentration of KM-819 as indicated and the levels of cleaved Caspase 3 and autophosphorylated form of JNK are measured by Western blot using anti-Caspase 3 antibody and anti-phospho-JNK antibody, respectively. Clearly, KM-819 inhibits the activity of Caspase 8 and JNK activation (FIG. 9).

Caspase 8 = Caspase 8 activation measured as Caspase 3 cleavage, Western blot; format: cell-based; settings: cleavage of Caspase 3
Protocol: as §3

alpha-synuclein = assay: Alpha-synuclein level in SH-SY5Y cells co-transfected with FAF1-Flag and alpha-synuclein-GFP, Western blot; format: cell-based
Protocol: To confirm if FAF1 inhibitor decreases the alpha-synuclein level in cells, SH-SY5Y cells are treated with the FAF1 inhibitor KM-819 (KR-88493, U.S. Pat. No. 7,939,550, Yoo S E et al. 2016). Cells are co-transfected with genes encoding FAF1 tagged with Flag and alpha-synuclein tagged with GFP. The alpha-synuclein level is measured by Western blot of cell extracts using anti-GFP antibody. The FAF1 level is measured by Western blot of cell extracts using anti-Flag antibody. Clearly, the level of alpha-synuclein is decreased upon treatment with FAF1 inhibitor (FIG. 11). […] This is much higher efficacy compared to the apoptosis inhibition activity measured in the prior art, 70% inhibition at 10 uM. Note that FAF1 level itself is not changed by treatment with FAF1 inhibitor.

LC3 and p62 = assay: Autophagy promotion: LC3 and p62 levels in SH-SY5Y cells overexpressing FAF1, Western blot; format: cell-based
Protocol: EC50 for autophagy promotion of KM-819 is 1 nM.

[2] = system: human alpha-synuclein mutant A53T; assay: Alpha-synuclein level in brain tissues of alpha-synuclein A53T transgenic mice after oral KM-819, Western blot; format: in vivo; settings: oral 1, 5, 10 mg/kg/day for 9 days, A53T Tg mice
FAF1-JNK complex = biological target: T2, FAF1-JNK complex (Homo sapiens, UniProt Q9UNN5); assay: Immunoprecipitation assay of FAF1-JNK complex formation; format: biochemical
T2 construct: host or cells: cell extracts
T2 sequence (Q9UNN5 1-650): T1 sequence (Q9UNN5 1-650)
Text: as §1, §2

FAF1 = FAF1 siRNA treatment of SH-SY5Y cells cotransfected with the alpha-synuclein gene, Western blot; format: cell-based
Text: FAF1 expression is attenuated by treating SH-SY5Y cells with siRNA (sequence: GUGUUGUGGCACAAACCAU) and reduction in FAF level is confirmed by Western blot of cell extracts using anti-FAF1 antibody. The cells are cotransfected with the alpha-synuclein gene. The level of alpha-synuclein is monitored by Western blot using anti-alpha-synuclein antibody. Clearly, the level of alpha-synuclein is decreased with FAF1 siRNA treatment (FIG. 5).

## O=C(CSc1ccc(Br)cc1)Nc1cn(CCc2ccccc2)nc1C(=O)O [KM-819, 4-[2-(4-bromo-phenylsulfanyl)-acetylamino]-1-phenethyl-1H-pyrazole-3-carboxylic acid]
[1]
  inhibition of apoptosis: 70%
FAF1-Caspase 8 complex
  inhibition at 0.1 µM: ~80%
JNK
  IC50: 250 nM
Caspase 8
  IC50: 730 nM
alpha-synuclein; Homo sapiens, SH-SY5Y, as stated in description b51, read-out: EC50 for decreasing the amount of alpha-synuclein in cells
  EC50: 20 nM
alpha-synuclein; Homo sapiens, SH-SY5Y, at 10 uM
  inhibition at 10 µM: > 95%
alpha-synuclein; Homo sapiens, SH-SY5Y cells, FAF1-Flag and alpha-synuclein-GFP, read-out: IC50 for decrease of alpha-synuclein level
  IC50: 20 nM
alpha-synuclein; SH-SY5Y cells, anti-Flag Western blot
  FAF1 level: not changed
LC3 and p62
  LC3 level: increases
  p62 protein level: decreases
LC3 and p62; Homo sapiens, read-out: EC50 for autophagy promotion (modulating LC-3 and p62 levels)
  EC50: 1 nM
[2]
  FAF1 level in midbrain: not changed
  level of S129 phosphorylated alpha-synuclein in midbrain: decreased
  level of alpha-synuclein in cerebellum: decreased
  level of alpha-synuclein in cortex: decreased
  level of alpha-synuclein in hippocampus: decreased
  level of alpha-synuclein in midbrain: decreased
  level of alpha-synuclein in striatum: decreased
FAF1-JNK complex
  inhibition at 0.1 µM: ~80%

## FAF1 siRNA: siRNA (sequence: GUGUUGUGGCACAAACCAU) that attenuates FAF1 expression in SH-SY5Y cells (chemistry not given here)
FAF1; SH-SY5Y cells cotransfected with alpha-synuclein gene
  level of alpha-synuclein: decreased
FAF1; SH-SY5Y cells, anti-FAF1 Western blot
  FAF1 expression: attenuated
